Three compounds from PMC12812009, “Optimization of 4‐Amino‐2‐Pyridone Inhibitors of Proprotein Convertase Subtilisin/Kexin Type 9: Integrating Structure–Activity and Structure–Metabolism Relationships” (Chemmedchem, 2025) can be followed below.

Read-outs that look alike come from different tables or passages of the source.

The nature of series [1]: MTT cell viability assay in HepG2 cell cultures. The format is cell-based, human. The conditions noted are these: human, HepG2 cells, MTT. The procedure:
The approach we set‐up to test the new PCSK9i was based on functional assay, which evaluated at the same time compounds cytotoxicity, and their effect on the secreted PCSK9 on the same cell line. First, cell viability was evaluated in HepG2 cell cultures using the MTT assay (CC50 values are reported in Table 1 and Figure 5 ) after 24 h of incubation in starving conditions (0.4% fetal bovine serum (FBS)). The low FBS concentration, and thus low extracellular lipoproteins, stimulates the sterol responsive element binding protein (SREBP) pathway, inducing the expression of LDLR, PCSK9, HMG‐CoA reductase,^[ [28] ^] thus increasing the uptake of exogenous cholesterol and enhancing the synthesis of endogenous cholesterol. This first step allowed us to calculate the CC50 and identify the noncytotoxic concentrations (viability higher than 90%; Table 1), then tested for PCSK9 inhibitory activity.
Cell viability was assessed using the MTT assay. Cells were seeded in 96‐well plates (2.5 × 10^4 cells/well) in MEM supplemented with 10% v/v FBS and incubated for 24 h. The cells were then treated with the synthesized compounds dissolved in DMSO at increasing concentrations (from 0.5 to 50 µM) in MEM supplemented with 0.4% v/v FBS for 24 h. Simvastatin [20 and 40 µM] and BBR [10 µM] (both from Merck, St. Louis, Missouri, USA) were used as internal controls as PCSK9 inducer and inhibitor, respectively.^[ [21] ^, [34] ^, [35] ^] The cells were then incubated for 2 h with a solution of MTT [1 mg mL^–1] in MEM supplemented with 0.4% v/v FBS, away from light sources. The supernatant was then collected and 200 µL of DMSO was added to each well to solubilize the newly formed formazan. Finally, an aliquot of 100 µL was taken to measure the absorbance at a wavelength of 570 nm using an absorbance microplate reader (Spark Tecan, Switzerland). Every experimental condition was run in duplicate and the average cell viability and standard deviation was calculated. Cell viability was expressed as the percentage of treated cells compared to untreated (basal) cells. CC50 values for each compound were calculated by interpolating the percentage of cell viability through nonlinear regression analysis of the log (inhibition) versus response using GraphPad Prism software version 8.0 (GraphPad Software Inc., La Jolla, CA).

Another series concerns PCSK9 mRNA. As to the kind of experiment: PCSK9 mRNA expression in HepG2 cells by RTqPCR. The format is cell-based, human. The conditions noted are these: 24 h incubation, increasing concentrations. The procedure: To further investigate the mechanism of action of these compounds, we evaluated the PCSK9 mRNA levels after 24 h incubation with increasing concentrations of 5c, 6b, and 7.
Total RNA was extracted using the iScript RT‐qPCR Sample Prep reagent (Bio‐Rad), according to the manufacturer's instructions. QuantiNova SYBR Green RT‐PCR Kit (QIAGEN, Hilden, Germany) was used for qPCR, along with specific primers for 18S (FWD 5′‐[…]‐3′, REV 5′‐[…]‐3′) PCSK9 (FWD 5′‐CCTGCGCGTGCTCAACT‐3′, REV 5′‐[…]‐3′). The analyses were performed with the CFX96 Touch Real‐Time PCR Detection System (Bio‐Rad) with cycling conditions of 45 °C for 10 min, 95 °C for 5 min, and a repetition of 40 cycles at 95 °C for 5 s followed by 30 s at 60 °C. The data were expressed as Ct values and used for relative quantification of targets with ΔΔCt calculations. The ΔΔCt values were determined by multiplying the ratio value between the efficiency of specific primers and housekeeping 18S. The efficiency was calculated as ((10(‐1/slope))−1) × 100.
In general terms: In qPCR the cycle at which signal appears reflects the starting amount.

The nature of series [2]: In vitro metabolic stability with mouse liver microsomes. The format is in vitro ADME. The conditions noted are these: for metabolic stability (in words): MLM + NADPH-generating system; for metabolic stability/PCSK9 IC50 ratio (in words): with respect to 5c. The method, then: All newly synthesized LSF derivatives of 5c were biologically evaluated to determine whether the introduced modifications influenced both metabolic stability and anti‐PCSK9 activity. Microsomal stability assays were conducted to assess the impact of LSF modifications on improving the stability of 5c. In these assays, LSF derivatives were incubated with mouse liver microsomes (MLM) and an NADPH‐generating system for 60 min, followed by HPLC analysis. Control samples included compounds and liver microsomes without the NADPH system, allowing for the assessment of nonspecific binding to microsomes. […] Acylated derivatives 12, 13, and 14 achieved stability levels exceeding 95%, as did the bicyclic derivative 7, which exemplifies a dual‐site functionalization.
MLM (pooled male) were obtained from Xenotech, LLC (Cambridge, Kansas City, USA). Glucose‐6‐phosphate (G6P), oxidized nicotinamide‐adenine‐dinucleotide phosphate (NADP^+), magnesium chloride (MgCl2), and glucose‐6‐phosphate‐dehydrogenase (G6PDH) were supplied by Sigma‐Aldrich (Milan, Italy). Metabolic stability assays were modified from Ferlenghi et al.^[ [33] ^] Briefly, samples were prepared in 100 mM phosphate buffered saline (PBS), pH 7.4, containing 1 mg ml^–1 MLM and a NADPH‐generating system (5 mM MgCl2, 10 mM glucose‐6‐phosphate, 2 mM NADP^+, 1.5 U ml^–1 of glucose‐6‐phosphate dehydrogenase). After incubation (37 °C, 5 min stirring), compounds stock solutions in DMSO were added to a final concentration of 10 µM. The final DMSO percentage in samples was kept at 0.5%. After 60 min, single aliquots of reaction mixture were withdrawn, added of two volumes of acetonitrile, centrifuged (10,000 g, 10 min) and the supernatant was analyzed by HPLC. The unspecific binding to MLM was evaluated by means of control samples in which the compounds were incubated in the absence of a NADPH generating system. The apparatus used for HPLC analysis was a Shimadzu instrument, with a reverse‐phase Nova‐Pak column (Waters) (C18 4 μm 3.9 × 150 mm, Waters). The mobile phase, pumped at a flow rate of 1.2 ml min^–1, consisted of water and acetonitrile in either a 50:50 (v/v) ratio (compounds 5c, 6a, 6b, 6c, 7, 8, 12, 13, 14, 17b) or a 40:60 (v/v) ratio (compounds 11 and 15) or a 30:70 (v/v) ratio (for compounds 17a, 18a, 18b). For compounds 9 and 10, a phosphate buffer (5.98 g L^–1 Na2HPO4, 0.19 g L^–1 KH2PO4, adjusted to pH 7.4 with 85% H3PO4 and supplemented with 1.4 mL L^–1 triethylamine; final pH: 8) and acetonitrile (50:50, v/v) were pumped at a flow rate of 2 mL min^–1. In all cases, column temperature was 35 °C, injection volume was 50 µl, and absorbance was monitored at 254 nm. Serial dilutions for the calibration curves were prepared in the interval 0.5–20 µM in either PBS:CH3CN or H2O:CH3CN mixture (50:50, v/v) for compounds 5c, 6a, 6b, 8, 9, 10, 11, 12, 13, 14, 15, 17a, 17b, 18a, 18b, and in acetonitrile for compounds 6c and 7.
A general note: Liver microsomes are vesicles of endoplasmic reticulum, rich in cytochrome P450 enzymes.

The mark [3] stands for this setting: printed in Figures 5 and 8, HepG2, 24 h, read-out: CC50.

One may read the CC50 as the concentration at which the toxic effect on the cells reaches its halfway point.

`Cc1cc(NCc2ccc(C(F)(F)F)cc2)cc(=O)n1Cc1ccc(C(F)(F)F)cc1` [Compound 5c]: in series [1] (setting [3]), the CC50 at 24 h came to 32.4 µM. The “PCSK9 mRNA expression (in words)” value in the series on PCSK9 mRNA was “strongly suppressed the PCSK9 mRNA expression”. Moreover, in series [2] (60 min), the “metabolic stability (in words)” value is “suboptimal metabolic stability”.

Turning to `Cc1cc(NCc2ccc(C(F)(F)F)cc2)c(Br)c(=O)n1Cc1ccc(C(F)(F)F)cc1` [Compound 6b, 3‐Bromo‐6‐Methyl‐1‐(4‐(Trifluoromethyl)Benzyl)‐4‐((4‐(Trifluoromethyl)Benzyl)Amino)pyridin‐2(1H)‐One], in series [1] (24 h incubation, HepG2, 0.4% FBS, 0.5-50.0 μM, read-out: CC50 (CI 95%)), the CC50 at 24 h worked out at 27 µM. The “PCSK9 mRNA expression (in words)” value in the series with PCSK9 mRNA is recorded as “strongly suppressed the PCSK9 mRNA expression”. Moreover, in series [2] (60 min), the “metabolic stability (in words)” value is recorded as “greater stability compared to chlorinated 6a”. Also, the “metabolic stability/PCSK9 IC50 ratio (in words)” value in series [2] is on record as “higher metabolic stability/PCSK9 IC50 ratio”.

With `Cc1cc2c(sc(=N)n2Cc2ccc(C(F)(F)F)cc2)c(=O)n1Cc1ccc(C(F)(F)F)cc1` [Compound 7, 2‐Imino‐6‐Methyl‐1,5‐Bis(4‐(Trifluoromethyl)benzyl)‐1,2‐Dihydrothiazolo[5,4‐c]pyridin‐4(5H)‐One], the CC50 at 24 h in series [1] (setting [3]) was over 50 µM. Moreover, the “PCSK9 mRNA expression (in words)” value with PCSK9 mRNA is on record as “strongly suppressed the PCSK9 mRNA expression”. In series [2] (MLM 1 mg/ml + NADPH-generating system, 60 min, 10 µM, HPLC), the “metabolic stability, percentage of intact compound recovered relative to control” value is “exceeding 95%”. For the same compound, the “metabolic stability/PCSK9 IC50 ratio (in words)” value in series [2] was “higher metabolic stability/PCSK9 IC50 ratio”.
